From ChEMBL document CHEMBL1201862, “PubChem BioAssay data set” (2004)
Active and inactive are the calls of the source. Cut-off read from the data, not from the text of the source, for most assays here: actives have a measured EC50 and inactives only a lower limit.

How the values were obtained:
Paired box protein Pax-8 = Paired box protein Pax-8 (Homo sapiens, UniProt Q06710); assay: PAX8 transcriptional activity inhibition in RMG-I – RMG-I cells, luciferase, cherry-pick, dose response (AID 687027); assay type: functional, cell-based;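 note: luciferase reporter driven by Pax8 target thyroperoxidase promoter measured by SteadyGlo luminescence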
Paired box protein Pax-8, sequence (Q06710 whole entry): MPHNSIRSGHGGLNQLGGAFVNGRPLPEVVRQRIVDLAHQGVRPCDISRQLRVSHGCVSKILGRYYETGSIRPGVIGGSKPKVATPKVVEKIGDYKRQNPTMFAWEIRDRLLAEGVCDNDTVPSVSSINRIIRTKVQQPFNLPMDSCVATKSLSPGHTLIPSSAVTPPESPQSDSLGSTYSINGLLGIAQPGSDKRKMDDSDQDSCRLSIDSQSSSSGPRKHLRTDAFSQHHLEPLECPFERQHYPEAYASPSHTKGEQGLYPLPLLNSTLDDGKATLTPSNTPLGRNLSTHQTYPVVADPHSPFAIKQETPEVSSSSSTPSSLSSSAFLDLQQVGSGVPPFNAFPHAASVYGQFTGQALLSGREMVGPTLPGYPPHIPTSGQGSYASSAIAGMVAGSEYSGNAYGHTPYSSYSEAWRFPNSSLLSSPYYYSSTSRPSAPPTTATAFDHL

[1] = NIH3T3 cell viability loss – ATP luminescence, mouse fibroblasts, counter-screen, dose response (AID 2010); assay type: functional, cell-based;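 note: cells exposed to compound for about 90 hours before reading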
[2] = Trypanosoma cruzi growth suppression in host cells – NIH3T3 host cells, beta-gal luminescence, confirmation (AID 2044); assay type: functional, cell-based;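 note: intracellular parasites grown in NIH/3T3 mouse fibroblasts as host cells; luminescent beta-galactosidase reporter signal from transgenic T. cruzi replicating inside host cells; inhibitors lower the luminescence signal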
[3] = viability of uninfected HEp-2 cells – cell-based, HTS, cytotoxicity control for RSV inhibitor project, dose response (AID 2410); assay type: functional; settings: human respiratory syncytial virus
[4] = molecular target: T1, Corticotropin-releasing factor receptor 2/Corticotropin-releasing factor-binding protein (Homo sapiens, UniProt P24387+Q13324); assay: Dose Response confirmation of uHTS hits for small molecule antagonists of the CRF-binding protein and CRF-R2 receptor complex.; assay type: functional; settings: read-out: IC50_Mean
T1 sequence (Q13324 whole entry): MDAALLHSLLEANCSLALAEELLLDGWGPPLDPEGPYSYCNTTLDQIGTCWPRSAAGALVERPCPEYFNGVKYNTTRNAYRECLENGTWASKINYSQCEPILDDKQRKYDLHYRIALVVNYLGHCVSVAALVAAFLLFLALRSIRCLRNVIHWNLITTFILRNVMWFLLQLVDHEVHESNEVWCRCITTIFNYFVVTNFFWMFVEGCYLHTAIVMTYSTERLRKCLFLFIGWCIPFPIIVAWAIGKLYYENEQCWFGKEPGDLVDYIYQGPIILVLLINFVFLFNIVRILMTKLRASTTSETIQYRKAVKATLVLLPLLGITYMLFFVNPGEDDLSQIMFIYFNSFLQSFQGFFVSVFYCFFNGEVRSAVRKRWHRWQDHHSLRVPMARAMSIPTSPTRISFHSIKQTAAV
T1 sequence (P24387 whole entry): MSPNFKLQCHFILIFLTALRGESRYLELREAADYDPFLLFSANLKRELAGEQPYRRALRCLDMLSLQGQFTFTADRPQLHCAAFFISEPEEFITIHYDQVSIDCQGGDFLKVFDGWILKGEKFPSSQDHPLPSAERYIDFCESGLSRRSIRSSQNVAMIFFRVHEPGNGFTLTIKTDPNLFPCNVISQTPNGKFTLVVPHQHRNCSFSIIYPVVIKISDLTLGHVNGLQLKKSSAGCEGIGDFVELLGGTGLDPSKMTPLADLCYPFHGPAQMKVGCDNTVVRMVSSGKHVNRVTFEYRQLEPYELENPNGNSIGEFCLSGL

[5] = NIH-3T3 fibroblast cytotoxicity, dose response, cytotoxicity control, cell-based, fluorescence, Alamar Blue, secondary assay (AID 2327); assay type: functional;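 note: NIH-3T3 mouse fibroblasts cultured with fluconazole at 8 µg/mL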
[6] = system: Streptococcus sp. 'group A'; assay: Streptococcus pyogenes SK(-)GAS viability under kanamycin – luminescence, BacTiterGlo, confirmation, counter-screen for streptokinase expression inhibitor project, dose response (AID 1900); assay type: functional, organism-based
[7] = molecular target: T1, Corticotropin-releasing factor receptor 2/Corticotropin-releasing factor-binding protein; assay: activators of CRF receptor 2 with binding protein – uHTS hits, confirmation (AID 602473); assay type: functional; settings: read-out: EC50_Mean
[8] = fluconazole-exposed Candida albicans growth modulators – fluorescence, retest, confirmation (AID 2467); assay type: functional, cell-based
Streptococcus = assay: GAS UMAA2166 growth inhibition – luminescence, BacTiterGlo, counter-screen for streptokinase expression inhibitor project, dose response (AID 1915); assay type: functional, organism-based;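 note: potency for reduction of bacterial viability or growth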
Streptokinase A = molecular target: T2, Streptokinase A (Streptococcus pyogenes serotype M1, UniProt P10520); assay: viability-normalized secreted streptokinase activity reduction – plasminogen activation absorbance, OD405, dose response (AID 1914); assay type: functional, Streptococcus pyogenes M1 GAS;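 note: secreted streptokinase activity via plasminogen activation per viability signal from cell pellet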
T2 sequence (P10520 whole entry): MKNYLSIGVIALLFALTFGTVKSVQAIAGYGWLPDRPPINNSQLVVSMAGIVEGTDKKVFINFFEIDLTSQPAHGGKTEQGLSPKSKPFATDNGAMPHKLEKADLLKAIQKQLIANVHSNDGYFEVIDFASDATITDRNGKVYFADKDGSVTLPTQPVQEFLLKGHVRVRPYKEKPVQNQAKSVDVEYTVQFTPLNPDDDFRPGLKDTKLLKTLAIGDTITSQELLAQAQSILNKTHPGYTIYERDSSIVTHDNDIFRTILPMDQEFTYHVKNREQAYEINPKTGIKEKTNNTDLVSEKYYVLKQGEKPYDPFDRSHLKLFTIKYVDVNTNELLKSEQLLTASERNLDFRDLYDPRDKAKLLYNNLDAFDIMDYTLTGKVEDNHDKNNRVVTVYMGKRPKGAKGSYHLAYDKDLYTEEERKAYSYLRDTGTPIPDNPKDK

H4 = assay: Luminescence Cell-Based Dose Response HTS to Identify Activators of 5'UTR Stem-Loop Driven Prion Protein mRNA Translation in H4 Neuroglioblastoma Cells. [Related pubchem assays: 1829 (Project Summary), 1814 (Primary HTS)]; assay type: functional; settings: Homo sapiens
[9] = Luminescence Cell-Based Dose Response HTS to Identify Activators of Luciferase Translation or Activity in H4 […] Cells. [Related pubchem assays: 1829 (Project Summary), 1814 (Primary HTS)]; assay type: functional
[10] = Luminescence Cell-Based Dose Confirmation HTS to Identify Activators of 5'UTR Stem-Loop Driven Alpha-Synuclein mRNA Translation in H4 Neuroglioblastoma Cells. [Related pubchem assays: 1829 (Project Summary), 1814 (Primary HTS)]; assay type: functional
INS1 = assay: INS-1E survival protection against cytokine death – cell-based, luminescence, retest, dose response (AID 449756); assay type: functional; settings: Rattus norvegicus;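 note: cell death triggered by IL-1 beta plus TNF-alpha plus IFN-gamma mixture; protective hits raise ATP signal compared with cytokine alone wells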
Fatty acid synthase [11] = molecular target: T3, Fatty acid synthase (Homo sapiens, UniProt P49327); assay: inhibition of human FAS-TE enzyme activity – biochemical, kinetic fluorescence intensity, dose response (AID 624326); assay type: functional;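 note: rate of fluorescence rise from hydrolysis of a fluorogenic O-methyl fluorescein ester substrate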
T3 sequence (P49327 whole entry): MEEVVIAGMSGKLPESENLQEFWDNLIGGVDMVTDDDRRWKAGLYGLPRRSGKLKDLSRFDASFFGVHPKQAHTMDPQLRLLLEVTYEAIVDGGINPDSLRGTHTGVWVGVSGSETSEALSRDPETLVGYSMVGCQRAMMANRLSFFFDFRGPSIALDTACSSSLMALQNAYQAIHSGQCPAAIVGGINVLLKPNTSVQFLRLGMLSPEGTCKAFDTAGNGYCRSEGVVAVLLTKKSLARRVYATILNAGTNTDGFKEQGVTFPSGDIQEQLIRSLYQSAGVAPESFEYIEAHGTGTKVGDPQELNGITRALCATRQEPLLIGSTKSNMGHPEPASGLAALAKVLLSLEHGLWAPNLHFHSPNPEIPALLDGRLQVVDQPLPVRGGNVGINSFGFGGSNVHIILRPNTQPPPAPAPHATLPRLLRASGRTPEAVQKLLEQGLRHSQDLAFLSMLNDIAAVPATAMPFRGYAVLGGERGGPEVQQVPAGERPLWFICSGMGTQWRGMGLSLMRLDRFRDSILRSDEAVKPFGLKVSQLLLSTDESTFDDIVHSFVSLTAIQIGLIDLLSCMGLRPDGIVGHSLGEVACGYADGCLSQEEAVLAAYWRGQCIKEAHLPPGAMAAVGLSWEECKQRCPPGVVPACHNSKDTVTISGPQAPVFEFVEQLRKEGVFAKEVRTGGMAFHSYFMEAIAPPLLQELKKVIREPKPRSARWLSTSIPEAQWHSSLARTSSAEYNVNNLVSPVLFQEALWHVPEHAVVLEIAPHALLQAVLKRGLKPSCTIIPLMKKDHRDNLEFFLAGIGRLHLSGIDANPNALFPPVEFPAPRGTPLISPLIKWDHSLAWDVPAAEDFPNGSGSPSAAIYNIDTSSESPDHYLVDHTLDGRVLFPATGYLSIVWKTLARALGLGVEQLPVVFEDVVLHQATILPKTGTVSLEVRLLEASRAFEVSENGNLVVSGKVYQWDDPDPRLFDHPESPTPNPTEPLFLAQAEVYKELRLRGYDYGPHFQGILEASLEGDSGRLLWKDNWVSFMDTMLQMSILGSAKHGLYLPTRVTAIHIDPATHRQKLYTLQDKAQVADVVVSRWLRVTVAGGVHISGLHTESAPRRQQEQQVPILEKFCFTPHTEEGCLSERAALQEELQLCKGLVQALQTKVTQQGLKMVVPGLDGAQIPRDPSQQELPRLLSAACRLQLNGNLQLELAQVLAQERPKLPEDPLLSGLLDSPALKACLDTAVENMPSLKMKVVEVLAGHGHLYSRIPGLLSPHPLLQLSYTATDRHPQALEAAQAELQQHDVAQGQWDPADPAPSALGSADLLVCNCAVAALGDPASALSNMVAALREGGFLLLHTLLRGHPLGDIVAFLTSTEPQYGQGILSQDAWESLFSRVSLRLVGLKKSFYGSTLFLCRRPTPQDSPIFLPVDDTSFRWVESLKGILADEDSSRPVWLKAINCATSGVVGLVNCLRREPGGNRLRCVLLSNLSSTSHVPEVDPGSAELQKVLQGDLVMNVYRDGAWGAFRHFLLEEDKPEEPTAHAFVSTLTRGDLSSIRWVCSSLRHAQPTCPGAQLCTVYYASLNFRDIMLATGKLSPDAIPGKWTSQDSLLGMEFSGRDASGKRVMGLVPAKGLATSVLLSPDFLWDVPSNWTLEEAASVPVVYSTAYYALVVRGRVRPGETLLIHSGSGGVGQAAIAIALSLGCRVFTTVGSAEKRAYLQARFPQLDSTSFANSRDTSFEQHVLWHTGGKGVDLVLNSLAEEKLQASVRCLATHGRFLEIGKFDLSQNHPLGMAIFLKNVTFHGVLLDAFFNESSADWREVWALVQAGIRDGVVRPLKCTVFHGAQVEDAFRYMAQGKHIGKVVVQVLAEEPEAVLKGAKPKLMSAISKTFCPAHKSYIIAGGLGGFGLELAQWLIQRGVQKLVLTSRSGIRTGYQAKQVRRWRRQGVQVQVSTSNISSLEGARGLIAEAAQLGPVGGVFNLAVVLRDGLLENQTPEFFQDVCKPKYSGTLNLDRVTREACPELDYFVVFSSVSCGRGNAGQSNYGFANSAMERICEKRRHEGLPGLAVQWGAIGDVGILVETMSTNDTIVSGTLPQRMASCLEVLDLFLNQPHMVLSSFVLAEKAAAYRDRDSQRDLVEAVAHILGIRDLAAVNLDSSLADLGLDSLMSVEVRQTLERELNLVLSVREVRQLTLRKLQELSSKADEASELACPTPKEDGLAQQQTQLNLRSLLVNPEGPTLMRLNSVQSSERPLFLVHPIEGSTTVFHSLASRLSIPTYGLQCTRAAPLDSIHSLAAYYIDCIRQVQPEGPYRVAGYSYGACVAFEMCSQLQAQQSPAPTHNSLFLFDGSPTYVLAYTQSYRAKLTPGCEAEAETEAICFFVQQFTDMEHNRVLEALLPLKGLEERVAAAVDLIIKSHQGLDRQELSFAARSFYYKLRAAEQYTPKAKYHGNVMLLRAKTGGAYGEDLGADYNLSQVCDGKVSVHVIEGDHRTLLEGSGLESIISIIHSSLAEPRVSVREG

Fatty acid synthase [12] = molecular target: T3, Fatty acid synthase; assay: inhibition of human FAS-TE enzyme activity – biochemical, endpoint fluorescence intensity, uHTS hits, dose response (AID 624327); assay type: functional;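 note: fluorescence from hydrolysis of an O-methyl fluorescein acyl ester substrate by the enzyme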

O=C(NC1CCCCC1)C(c1cccs1)N(C(=O)Cc1c[nH]c2ccccc12)c1ccc(F)cc1 (configuration not stated)
AC50 (Paired box protein Pax-8): 11.7 µM (active) | EC50 [1]: 9.47 µM (active) | EC50 [2]: 0.871 µM (active)

O=C(CN1CCC(n2nnc3ccccc32)CC1)Nc1ccc2c(c1)CCC2
CC50 [3]: 49.5 µM (active)

O=C(O)c1cnc(-c2ccccc2)nc1Sc1ccc(Cl)cc1Cl
IC50 [4]: 1.85 µM (active) | EC50 [5]: 57.8 µM (active) | EC50 [6]: 15.4 µM (active) | EC50 [7]: > 53 µM (inactive) | EC50 [8]: 0.13 µM (active) | EC50 (Streptococcus): > 150 µM (not active) | EC50 (Streptokinase A): 18.8 µM (active)

CCN1CCN(C(CNC(=O)c2ccc3c(c2)OCO3)c2cccnc2)CC1 (configuration not stated)
EC50 (H4): 15.6 µM (active) | EC50 [9]: 11.5 µM (active) | EC50 [10]: > 120 µM (not active)

COc1cccc2c1Oc1ncccc1N(C(=O)CCC(=O)NCc1ccccc1F)C2
EC50 [5]: 19.4 µM (inconclusive) | EC50 [8]: > 38 µM (not active)

COc1ccc(N2C(S)=NC3N2C(S)=NC3(C)c2ccccc2)cc1 (configuration not stated)
EC50 (H4): 53.5 µM (active) | EC50 [9]: 35 µM (active) | EC50 [10]: 18.1 µM (active)

CSc1nsc(SCC(=O)Nc2ccc(C(C)=O)cc2)n1
EC50 (H4): 6.18 µM (active) | EC50 [9]: 23.5 µM (active) | EC50 [10]: 4.49 µM (active)

CC(C)(C)C1CCC(OC(=O)CN2CCOCC2)CC1 (configuration not stated)
EC50 (H4): 19.6 µM (active) | EC50 [9]: 8.04 µM (active) | EC50 [10]: 13.5 µM (active)

Cc1cc(O)c2c(c1)C(=O)C13C(=C2O)C(=O)[C@H]2[C@@H](O)[C@@H]1[C@H]1[C@H](O)[C@@H]3C(=O)C3=C(O)c4c(O)cc(C)cc4C(=O)C312 (some centres not stated)
AC50 (INS1): 7.65 µM (active)

CN(C)c1ccc(N=Nc2ccccc2C(=O)OCC(=O)N(C)C2CCCCC2)cc1
EC50 (H4): 51.8 µM (active) | EC50 [9]: 84.2 µM (active) | EC50 [10]: 85.5 µM (active)

COc1ccccc1N1CCN(C(=O)C(C)NC(=O)c2cccc([N+](=O)[O-])c2)CC1 (configuration not stated)
IC50 (Fatty acid synthase [11]): 1.48 µM (active) | IC50 (Fatty acid synthase [12]): 2.72 µM (active)

CN1C(=O)C2C=CC1C1C(=O)N(c3ccccc3)C(=O)C21 (configuration not stated)
EC50 (H4): 0.209 µM (active) | EC50 [9]: 0.45 µM (active) | EC50 [10]: 0.128 µM (active)

CCO[C@@H]1OC(C(=O)NCc2nc3ccccc3[nH]2)=C[C@H](C2CC2)[C@H]1CCCO
EC50 (H4): > 120 µM (not active) | EC50 [9]: > 120 µM (not active) | EC50 [10]: > 120 µM (not active)

CC[n+]1c(/C=C/N(C)c2ccccc2)oc2ccccc21
EC50 [5]: > 150 µM (inactive) | EC50 [1]: 16.9 µM (active) | EC50 [2]: 0.258 µM (active) | EC50 [8]: 3.58 µM (active)

CCCOc1ccc(NC(=O)CC2C(=O)N(CC)C(=S)N2Cc2cccs2)cc1 (configuration not stated)
IC50 (Fatty acid synthase [11]): 10.9 µM (active) | IC50 (Fatty acid synthase [12]): 12.4 µM (active)

CCOC(=O)C1CCN(C(=O)CN2C(=O)COc3ccc(C(C)(C)C)cc32)CC1
EC50 (H4): > 120 µM (not active) | EC50 [9]: > 120 µM (not active) | EC50 [10]: > 120 µM (not active)

Nc1ccc(C#Cc2c(-c3ccsc3)oc3ccc(N4CCOCC4)cc23)cc1
CC50 [3]: 31.5 µM (active)

O=C(Nn1c(-c2ccc(Br)cc2)nc2ccccc2c1=O)c1ccc([N+](=O)[O-])cc1
IC50 (Fatty acid synthase [11]): 7.74 µM (active) | IC50 (Fatty acid synthase [12]): 8.68 µM (active)

Nc1ccccc1-[n+]1c(-c2ccccc2)cc(-c2ccccc2)cc1-c1ccccc1.[O-][Cl+3]([O-])([O-])[O-]
EC50 [5]: > 150 µM (inactive) | EC50 [1]: > 60 µM (not active) | EC50 [2]: 0.114 µM (active) | EC50 [8]: 0.843 µM (active)

O=C(NNc1ccc([N+](=O)[O-])cc1)c1ccccc1Cl
EC50 [5]: > 150 µM (inactive) | EC50 [8]: > 38 µM (not active)

O=C(/C=C/c1cccc([N+](=O)[O-])c1)N1CCN(c2ccc(F)cc2)CC1
IC50 (Fatty acid synthase [11]): 4.93 µM (active) | IC50 (Fatty acid synthase [12]): 2.32 µM (active)

CN(C)CCCN(C(=O)CCOc1ccccc1)c1nc2c(F)cccc2s1
AC50 (Paired box protein Pax-8): 7.17 µM (active) | EC50 [1]: 7.17 µM (active) | EC50 [2]: 0.152 µM (active)

O=[N+]([O-])c1ccc(Cl)c(S(=O)(=O)Nc2ccc(-c3ccc(N4CCCC4)nn3)cc2)c1
IC50 (Fatty acid synthase [11]): 11.3 µM (active) | IC50 (Fatty acid synthase [12]): 8.93 µM (active)

CC1CCc2c(C(=O)Oc3cccc(-n4cnnn4)c3)csc2C1 (configuration not stated)
IC50 (Fatty acid synthase [11]): 1.36 µM (active) | IC50 (Fatty acid synthase [12]): 1.71 µM (active)

COC(=O)c1cn(CCOc2ccccc2)c2ccccc12
EC50 (H4): 12.9 µM (active) | EC50 [9]: 10.2 µM (active) | EC50 [10]: 6.67 µM (active)

CCCNC(=O)C12CCC(C)(c3nc4cc(C)c(C)cc4nc31)C2(C)C (configuration not stated)
EC50 [5]: 113 µM (active)

O=S(=O)(Nc1nc(-c2ccccc2)cs1)c1cc(Cl)ccc1Cl
EC50 [5]: > 160 µM (inactive) | EC50 [8]: 1.8 µM (active)

Cn1nnnc1SCC(=O)Nc1nc2ccccc2s1
EC50 (H4): 33.4 µM (active) | EC50 [9]: 8.98 µM (active) | EC50 [10]: 8.16 µM (active)

O=C(NCCC1=CCCCC1)c1ccc(Cl)c([N+](=O)[O-])c1
IC50 (Fatty acid synthase [11]): 9.92 µM (active) | IC50 (Fatty acid synthase [12]): 11.7 µM (active)

CC(C)(C)CN1CCC(Oc2cccc(C(=O)NCCCOc3cccnc3)c2)CC1
AC50 (INS1): 1.25 µM (active)

CC(C)(C)N1C(=O)[C@H]2[C@@H](c3ccc(Br)cc3)N3C(=O)N(c4cccc(F)c4)C(=O)[C@@]3(Cc3ccccc3)[C@H]2C1=O
IC50 (Fatty acid synthase [11]): 10.8 µM (active) | IC50 (Fatty acid synthase [12]): 19.8 µM (active)

CC(=O)c1cccc(-c2ccnc3c2CC(C(=O)Nc2cccc(OC(F)(F)F)c2)O3)c1 (configuration not stated)
IC50 (Fatty acid synthase [11]): 6.27 µM (active) | IC50 (Fatty acid synthase [12]): 9.72 µM (active)

Cc1noc(C)c1NC(=O)Nc1cccc2c1O[C@H](CN(C)C(=O)NC1CCCCC1)[C@@H](C)CN([C@H](C)CO)C2=O
IC50 (Fatty acid synthase [11]): 4.3 µM (active) | IC50 (Fatty acid synthase [12]): 2.47 µM (active)

O=C(CC1C[C@H](C(=O)N2CCOCC2)[C@@]2(CCC3CCCC3)c3[nH]c4ccccc4c3CCN2C1=O)NCc1cccc(C(F)(F)F)c1 (some centres not stated)
IC50 (Fatty acid synthase [11]): 8.04 µM (active) | IC50 (Fatty acid synthase [12]): 4.98 µM (active)

Cc1ccc(-c2nn(-c3ccccc3)cc2/C=N/O)cc1
EC50 [6]: > 150 µM (not active) | EC50 (Streptococcus): > 150 µM (not active) | CC50 [3]: 27.9 µM (active) | EC50 (Streptokinase A): > 150 µM (not active)

CCCCC(=O)N/N=C/c1cc([N+](=O)[O-])ccc1N1CCOCC1
IC50 (Fatty acid synthase [11]): 4.13 µM (active) | IC50 (Fatty acid synthase [12]): 4.56 µM (active)

COc1c2c(cc3oc(=O)c4c5ccc(O)cc5oc4c13)OC(C)(C)CC2 [ISOGLYCYROL]
EC50 [9]: 3.13 µM (active) | EC50 [10]: 0.274 µM (active)
